We go through 60 compounds from patent publication US8022091B2, “Triazole derivative” (Taisho Pharmaceutical Co., Ltd., priority 2006, dated 2011).

The first assay deals with T1, human Edg-1 (S1P1) (Homo sapiens, UniProt P21453).
T1 construct: expressed in transfected cells; host or cells: HEK-293
T1 sequence (P21453 whole entry): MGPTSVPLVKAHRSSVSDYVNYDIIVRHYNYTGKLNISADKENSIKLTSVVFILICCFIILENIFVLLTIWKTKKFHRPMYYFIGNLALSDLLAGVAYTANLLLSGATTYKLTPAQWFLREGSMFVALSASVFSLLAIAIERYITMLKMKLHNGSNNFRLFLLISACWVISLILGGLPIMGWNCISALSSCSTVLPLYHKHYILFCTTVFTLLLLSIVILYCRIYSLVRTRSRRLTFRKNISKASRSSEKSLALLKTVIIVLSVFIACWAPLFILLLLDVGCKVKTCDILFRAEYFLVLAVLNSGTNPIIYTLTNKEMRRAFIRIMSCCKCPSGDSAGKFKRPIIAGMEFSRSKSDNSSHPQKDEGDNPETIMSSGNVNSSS
Briefly: S1P1 binding assay: inhibition of [33P]-S1P binding to membrane fraction of HEK-293 cells transferred with the human Edg-1 (S1P1) gene. To be noted: [33P]-S1P 0.1 nM, human Edg-1 (S1P1) HEK-293 membrane fraction, 1 h at 30° C.; read-out: IC50 (concentration at which binding in the absence of the test compound was inhibited by 50%). In a few lines:
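With 0.1 nM [33P]-S1P and compound (10^−5M single point, or a concentration range for IC50) in 0.1% DMSO, membrane fractions from human Edg-1-expressing HEK-293 cells were treated for one hour at 30° C in 20 mM Tris-HCl pH 7.4 with NaF, deoxypyridoxine and BSA. Bound label was measured after filtration, with untransfected-cell background subtracted.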
Take `CCn1c(Oc2cccc(N3CCN(C(C)=O)CC3)c2)nnc1[C@@H](C)NS(=O)(=O)c1ccc2c(Cl)cccc2c1` [Compound 698]: the IC50 was determined as 2.3 nM.

Staying with this assay, now noted: test compound 10 μM; inhibition of [33P]-S1P binding, membrane fraction.
The term inhibition denotes the change of the read-out against control, counted positive when it falls. Consider `CCCCCCCCCCS(=O)(=O)N[C@H](C)c1nnc(Oc2cccc(N3CCN(C)CC3)c2)n1CC` [Compound 628], for which the inhibition at 10 µM turned out to be 64.4%. `CCn1c(Oc2cccc(N3CCN(C)CC3)c2)nnc1[C@@H](C)NS(=O)(=O)c1cccc(C(F)(F)F)c1` [Compound 530]: the inhibition at 10 µM came out at 115%. On the same count and under the same terms, for `CCn1c(Oc2cccc(N3CCN(C)CC3)c2)nnc1[C@@H](C)NS(=O)(=O)c1cc(C)ccc1C` [Compound 537] the value was 96.7%; for `CCn1c(Oc2ccc3cc[nH]c3c2)nnc1[C@@H](C)NS(=O)(=O)c1cc(Cl)ccc1F` [Compound 446], 75.8%.

`CCn1c(Oc2cccc(N3CCN(C)CC3)c2)nnc1[C@@H](C)NS(=O)(=O)c1c(Cl)cccc1Cl` [Compound 512]: the inhibition at 10 µM worked out at 60.7%. The same measure, in the same setting: under `CCn1c(Oc2cccc(N3CCN(C)CC3)c2)nnc1[C@@H](C)NS(=O)(=O)c1ccsc1` [Compound 635] stands 68.7%; under `CCn1c(Oc2ccc3cc[nH]c3c2)nnc1[C@@H](C)NS(=O)(=O)c1ccc2c(c1)OCCO2` [Compound 461], 99.7%; under `CCn1c(Oc2cccc(N3CCN(C)CC3)c2)nnc1[C@@H](C)NS(=O)(=O)c1ccc(F)c2ccccc12` [Compound 648], 108%. Still for that read-out and setting: under `CCn1c(Oc2cccc(N3CCN(C)CC3)c2)nnc1[C@@H](C)NS(=O)(=O)c1ccccc1OC(F)(F)F` [Compound 563] stands 64.1%; under `CCn1c(Oc2cccc(N3CCN(C)CC3)c2)nnc1[C@@H](C)NS(=O)(=O)c1cc(C)sc1C` [Compound 641], 85.2%; under `CCn1c(Oc2ccc3cc[nH]c3c2)nnc1[C@@H](C)NS(=O)(=O)c1cc(C)oc1C(F)(F)F` [Compound 460], 53.2%. The same measure, in the same setting: for `CCc1ccc(OC)c(S(=O)(=O)N[C@H](C)c2nnc(Oc3ccc4cc[nH]c4c3)n2CC)c1` [Compound 482] the value was 87.4%; for `CCn1c(Oc2cccc(N3CCN(C)CC3)c2)nnc1[C@@H](C)NS(=O)(=O)c1c(F)cc(F)cc1Br` [Compound 605], 83.4%; for `CCn1c(Oc2cccc(N3CCN(C)CC3)c2)nnc1[C@@H](C)NS(=O)(=O)c1cccc(Cl)c1F` [Compound 621], 95.4%.

Regarding `CCn1c(Oc2cccc(N3CCN(C)CC3)c2)nnc1[C@@H](C)NS(=O)(=O)c1ccc(Br)c(F)c1` [Compound 615], the inhibition at 10 µM came to 110%. For the compound `CCn1c(Oc2cccc(N3CCN(C)CC3)c2)nnc1[C@@H](C)NS(=O)(=O)c1c(C)cc(C)cc1C` [Compound 517], the inhibition at 10 µM came out at 69.6%.

With `CCn1c(Oc2cccc(N3CCN(C)CC3)c2)nnc1[C@@H](C)NS(=O)(=O)c1ccccc1C` [Compound 531], the inhibition at 10 µM was 100%. On the same count and under the same terms, under `CCn1c(Oc2ccc3cc[nH]c3c2)nnc1[C@@H](C)NS(=O)(=O)c1cccc(OC(F)F)c1` [Compound 435] stands 94.6%; under `CCn1c(Oc2cccc(N3CCN(C)CC3)c2)nnc1[C@@H](C)NS(=O)(=O)c1sc2ccc(Cl)cc2c1C` [Compound 509], 87%. The same measure, in the same setting: for `CCn1c(Oc2cccc(N3CCN(C)CC3)c2)nnc1[C@@H](C)NS(=O)(=O)c1ccc2c(c1)OCCO2` [Compound 630] the value was 107%. Turning to `CCn1c(Oc2ccc3cc[nH]c3c2)nnc1[C@@H](C)NS(=O)(=O)c1ccc(C#N)cc1` [Compound 395], the inhibition at 10 µM stood at 79.1%. `CCn1c(Oc2cccc(N3CCN(C)CC3)c2)nnc1[C@@H](C)NS(=O)(=O)c1cc(C)ccc1OC` [Compound 562]: the inhibition at 10 µM came to 93.3%. Same read-out and setting: under `CCn1c(Oc2cccc(N3CCN(C)CC3)c2)nnc1[C@@H](C)NS(=O)(=O)c1ccc(Br)cc1OC(F)(F)F` [Compound 504] stands 53.5%; under `CCn1c(Oc2cccc(N3CCN(C)CC3)c2)nnc1[C@@H](C)NS(=O)(=O)c1c(C)cccc1Cl` [Compound 551], 76.1%. Still for that read-out and setting: under `CCn1c(Oc2ccc3cc[nH]c3c2)nnc1[C@@H](C)NS(=O)(=O)Cc1cccc(Cl)c1` [Compound 430] stands 50%; under `CCn1c(Oc2cccc(N3CCN(C)CC3)c2)nnc1[C@@H](C)NS(=O)(=O)c1ccc2c(c1)CN(C(=O)C(F)(F)F)CC2` [Compound 536], 50.3%. Turning to `CCn1c(Oc2cccc(N3CCN(C)CC3)c2)nnc1[C@@H](C)NS(=O)(=O)c1cc(C)ccc1F` [Compound 620], the inhibition at 10 µM worked out at 88.4%. On the same count and under the same terms, under `CCn1c(Oc2cccc(N3CCN(C)CC3)c2)nnc1[C@@H](C)NS(=O)(=O)c1ccc2c(c1)C(C)(C)CCC2(C)C` [Compound 676] stands 92.6%.

Still in this assay, the particulars now being: test compound at 10 μM; inhibition of [33P]-S1P binding to the membrane fraction of HEK-293 cells expressing human Edg-1 (S1P1).
Take `CCn1c(Oc2ccc3cc[nH]c3c2)nnc1[C@@H](C)NS(=O)(=O)c1cc(Cl)ccc1Cl` [Compound 341]: the inhibition at 10 µM came to 92.8%. The same measure, in the same setting: for `CCn1c(Oc2ccc3cc[nH]c3c2)nnc1[C@@H](C)NS(=O)(=O)c1ccc(Br)c(Br)c1` [Compound 392] the value was 73.6%.

With `CCn1c(Oc2ccc(F)cc2)nnc1[C@@H](C)NS(=O)(=O)c1ccccc1` [Compound 155], the inhibition at 10 µM is 59.9%. Still for that read-out and setting: under `CCn1c(Oc2ccc(F)cc2)nnc1[C@@H](C)NS(=O)(=O)c1ccc(Br)cc1F` [Compound 242] stands 85.9%.

In the case of `CCn1c(Oc2ccc(F)cc2)nnc1[C@@H](C)NS(=O)(=O)c1ccc2nsnc2c1` [Compound 292], the inhibition at 10 µM amounted to 107%.

In the case of `CCn1c(Oc2ccc(F)cc2)nnc1[C@@H](C)NS(=O)(=O)c1cc(Cl)ccc1OC` [Compound 254], the inhibition at 10 µM is 75.1%. In the case of `CCn1c(Oc2ccc(F)cc2)nnc1[C@@H](C)NS(=O)(=O)c1cc(Cl)ccc1Cl` [Compound 168], the inhibition at 10 µM turned out to be 68.4%. In the case of `CCn1c(Oc2ccc(F)cc2)nnc1[C@@H](C)NS(=O)(=O)c1ccc(F)cc1F` [Compound 227], the inhibition at 10 µM worked out at 51.4%. On the same count and under the same terms, under `CCn1c(Oc2ccc(F)cc2)nnc1[C@@H](C)NS(=O)(=O)c1cc(F)c(F)c(F)c1` [Compound 268] stands 99.9%; under `CCn1c(Oc2ccc(F)cc2)nnc1[C@@H](C)NS(=O)(=O)c1cc(C)ccc1OC` [Compound 221], 69.2%. Same read-out and setting: for `CCn1c(Oc2ccc(F)cc2)nnc1[C@@H](C)NS(=O)(=O)c1ccc(Cl)cc1` [Compound 162] the value was 109%; for `CCn1c(Oc2ccc(F)cc2)nnc1[C@@H](C)NS(=O)(=O)c1cc(F)c(F)cc1F` [Compound 256], 85.2%; for `CCn1c(Oc2ccc(F)cc2)nnc1[C@@H](C)NS(=O)(=O)c1cc(Cl)ccc1F` [Compound 274], 53.5%. The same measure, in the same setting: under `CCn1c(Oc2ccc(F)cc2)nnc1[C@@H](C)NS(=O)(=O)c1cc(C(F)(F)F)ccc1Cl` [Compound 251] stands 59%; under `CCn1c(Oc2ccc3cc[nH]c3c2)nnc1[C@@H](C)NS(=O)(=O)c1c(Cl)cccc1Cl` [Compound 342], 53.6%; under `CCn1c(Oc2ccc(F)cc2)nnc1[C@@H](C)NS(=O)(=O)c1ccc(Br)cc1` [Compound 156], 107%. `CCn1c(Oc2ccc3cc[nH]c3c2)nnc1[C@@H](C)NS(=O)(=O)/C=C/c1ccccc1` [Compound 356]: the inhibition at 10 µM is 95.6%. Still for that read-out and setting: under `CCn1c(Oc2ccc(F)cc2)nnc1[C@@H](C)NS(=O)(=O)c1ccc(Cl)cc1Cl` [Compound 226] stands 80.4%. On the same count and under the same terms, for `C=Cc1ccc(S(=O)(=O)N[C@H](C)c2nnc(Oc3ccc4cc[nH]c4c3)n2CC)cc1` [Compound 363] the value was 96.2%; for `CCn1c(Oc2ccc(F)cc2)nnc1[C@@H](C)NS(=O)(=O)c1cc(OC)ccc1OC` [Compound 228], 53.9%; for `CCn1c(Oc2ccc(F)cc2)nnc1[C@@H](C)NS(=O)(=O)c1ccc(F)cc1` [Compound 173], 97.2%. The same measure, in the same setting: under `CCn1c(Cc2ccc(C)cc2)nnc1[C@@H](C)NS(=O)(=O)c1ccc(Cl)c(Cl)c1` [Compound 56, 3,4-Dichloro-N-[(R)-1-[4-ethyl-5(4-methylbenzyl)-4H-[1,2,4]triazol-3-yl]-ethyl]-benzenesulfonamide] stands 88.3%; under `CCn1c(Oc2ccc3cc[nH]c3c2)nnc1[C@@H](C)NS(=O)(=O)c1ccc2c(c1)CN(C(=O)C(F)(F)F)CC2` [Compound 366], 63.2%. Turning to `CCn1c(Oc2ccc(F)cc2)nnc1[C@@H](C)NS(=O)(=O)c1cc2ccccc2s1` [Compound 323], the inhibition at 10 µM came out at 77.9%. Turning to `CCn1c(Oc2ccc(F)cc2)nnc1[C@@H](C)NS(=O)(=O)/C=C/c1ccccc1` [Compound 183], the inhibition at 10 µM turned out to be 92.8%. On the same count and under the same terms, for `CCn1c(Oc2ccc3cc[nH]c3c2)nnc1[C@@H](C)NS(=O)(=O)c1cc(C)ccc1C` [Compound 367] the value was 94.3%; for `CCn1c(Oc2ccc(F)cc2)nnc1[C@@H](C)NS(=O)(=O)c1cc(C)ccc1F` [Compound 279], 79.6%.

As to `CCn1c(Oc2ccc3cc[nH]c3c2)nnc1[C@@H](C)NS(=O)(=O)c1ccc(OC)c(OC)c1` [Compound 343], the inhibition at 10 µM amounted to 86.5%. Same read-out and setting: for `CCn1c(Oc2ccc(F)cc2)nnc1[C@@H](C)NS(=O)(=O)c1cc(F)cc(F)c1` [Compound 266] the value was 99%; for `CCn1c(Oc2ccc(F)cc2)nnc1[C@@H](C)NS(=O)(=O)c1ccc(C(=O)OC)n1C` [Compound 201], 84.3%.

Turning to `CCn1c(Oc2ccc(F)cc2)nnc1[C@@H](C)NS(=O)(=O)c1cc(Br)cc(C(F)(F)F)c1` [Compound 319], the inhibition at 10 µM was found to be 61.7%.
